Holding throughout (assay type): cell-based, human
Assay [1] deals with promyelo/monocytic cell line U937. The assay is described as follows: MTT cell proliferation, U937. The settings on record: for growth inhibition by free active principle: stated in the U937/HL-60 context. As to the method: MCF7, U937, HL-60 and HT29 cell lines were purchased from the American […] Culture Collection (Rockville, […].). MCF7 cells were grown in DMEM/F12 supplemented with 5% FBS, while U937 and HL-60 were grown in RPMI-1640 supplemented with 10% (v/v) foetal bovine serum.
Approximately 1000 cells (MCF7 and HT29) and 500 cells (U937 and HL-60) per well were used in 96-well plates and were treated as indicated in the examples. At the end of the experiment, the anti-proliferative effect was measured with 3-(4,5-dimethylthiazol-2-yl)-2,5-diphenyltetrazolium bromide (MTT). The blank value, corresponding to wells containing all the components but cells, was subtracted from the absorbance values obtained.

Assay [2] has the same test system. The assay is described as follows: Cell cycle perturbation by flow cytometry, U937. Particulars: U937, 3 days; mixed ester 0.1 mg/ml, BA 0.2 mM, RA 10^−5 M. As to the method:
The evaluation was performed by flow cytometry (panels a, b, c) after 6 days of continuous treatment with mixed ester at 0.1 or 1 mg/ml concentrations and was compared with the effect on cell growth determined by a colorimetric method (MTT), described by the curve -●-.
The effect on cell cycle and on cell proliferation has been assessed. The assessment has been performed by flow cytometry after 3 days of treatment with the mixed ester of the invention at 0.1 mg/ml concentration, or with butyric acid or retinoic acid at concentrations of 0.2 mM and 10^−5 M, respectively. Cell cycle perturbations induced by these compounds are related to the effect on cell proliferation (ordinate axis) exerted by identical concentrations of the drugs and expressed as percentage of the control (CTR) represented by cells cultured in medium alone. […] CTR: control. Panel a): (Go=45%; S=46%), panel b): (Go=44%; S=45%); panel c) (Go=43%; S=45%); panel d): (Go=72%; S=22%); panel e) (Go=41%; S=46%), panel f): (Go=94%; S=2%).
To evaluate cell cycle alterations, cells were re-suspended in a solution containing only propidium iodide, Rnase and Nonidet P40 and the fluorescence was measured using a FACScan flow cytometer.

Another assay concerns U937 cells. The assay can be described thus: Expression of membrane antigens by flow cytometry (FACS), U937. The settings on record: U937, 3 days; mixed ester 0.1 mg/ml, butyric acid 0.2 mM, retinoic acid 10^−5M. The procedure: Expression of CD44, CD11a, CD11b, CD18 antigens was measured with specific murine monoclonal antibodies and secondary anti-mouse antibodies conjugated to FITC. After immunofluorescence, cells were incubated in a solution containing propidium iodide (PI) (5 mg/ml), Rnase (10 kU/ml), and Nonidet P40 (0.005%). The fluorescence relative to PI was measured using a FACScan flow cytometer (Becton Dickinson) equipped with an argon laser at 488 nm excitation wavelength and a 610 nm filter. The fluorescence signal was collected in linear and logaritmic modes. Data were evaluated using the LYSIS II software.
To check whether the block of cell growth was accompanied by activation of differentiation, the selected experimental model consists of the U937 promyelo/monocytic cell line, in which the effect of mixed esters on a series of myelocyte/macrophage specific differentiation markers (CD11a, CD11b and CD18) has been studied. The resulting effect has been directly compared with that of the two active principles. […] The results have been compared with those obtained with butyric and retinoic acids at the same concentrations as in the mixed ester (respectively 0.2 mM and […]). Since the time of treatment was reduced to 3 days in these experiments, the effects on growth and cell cycle were also measured.
In table 2 are indicated the percentages of expression measured by FACS of some membrane antigens in U937 cells treated with the esters of the invention and with the two non-esterified active principles. For each treatment the control has been repeated and is then indicated by the respective superscript.
The evaluation was performed by flow cytometry after that the promyelo/monocytic U937 cell line was treated for 3 days with mixed ester at 0.1 mg/ml concentration, butyric acid at 0.2 mM concentration or retinoic acid at 10^−5M concentration. Human lymphocytes were used as negative control for the expression of the antigen under examination.

The results in this text go back to patent US20060074048A1, “Mixed esters of hyaluronic acid with retinoic and butyric acids” (priority 2002, published 2006).

SMILES strings stand for the structures.

Regarding `CCCC(=O)O` [butyric acid, Butyric Acid], the “growth inhibition by free active principle” value in assay [1] (BA 2 mM) is given as ~100%. The “anti-proliferative effect and cell cycle block” value in assay [1] (U937, 3 days, BA 0.2 mM, RA 10^−5 M) is listed as “totally ineffective”. For the same compound, in assay [2], the “cells blocked in G0/1 (Go) phase” value amounted to 44% and the “cells in S phase” value came out at 45%. In addition, in the assay with U937 cells, the CD11a expression is recorded as 76%, the CD11b expression came out at 17%, the CD18 expression came out at 82% and the CD44 expression was found to be 91%.

For `CC1=C(/C=C/C(C)=C/C=C/C(C)=C/C(=O)O)C(C)(C)CCC1` [retinoic acid, Retinoic acid], the “growth inhibition by free active principle” value in assay [1] (RA 10^−4 M) is on record as ~100%. Moreover, in assay [2], the “cells blocked in G0/1 (Go) phase” value is 94% and the “cells in S phase” value came out at 2%. In the assay on U937 cells, this compound gave a CD11a expression of 91%, a CD11b expression of 28%, a CD18 expression of 83% and a CD44 expression of 97%.
